# Bridge positions count the residues as written; N and C are the ends. Ends that are not written are not given here.
# Tests used:
# Neuro-2a cells = assay: ATP-induced Neuro-2a cell death (MTT); assay type: cell-based, murine
# Procedure: Figure 11 The effects of the peptides on ATP-induced Neuro-2a cell viability and activation of P2X7R. (a) Impact of the peptides on Neuro-2a cell viability in the presence of 4 mM ATP. The peptides were tested at concentrations of 0.01, 0.1, and 1.0 μM. Cells were incubated with peptides for 1 h at 37 °C, then for 48 h with ATP. […] The peptide effects were evaluated against the effects of ATP. The data are shown as means ± SE; *—p < 0.05 compared to the effect of ATP alone. […]
# Then, 20 μL of substance solution was loaded into the cells and incubated for 24 h followed by replacement of the medium with tested substances and 100 μL of fresh medium. […] The absorbance of the converted dye formazan was measured using a Multiskan FC microplate photometer (Thermo Scientific, Waltham, MA, USA) at a wavelength of 570 nm [83, 84]. […] Cytotoxic activity was expressed as the percentage of cell viability.
# At the end of the preincubation period, the cells were treated with peptides at concentrations of 0.01, 0.1, 1, and 10 μM for 1 h, after which 600 μM paraquat, 10 μM rotenone, 80 μM of 6-OHDA, 1 mM MPP^+, or 4 mM ATP (Sigma-Aldrich, St. Louis, MO, USA) was added. […] Cell viability was measured after 24 h (with paraquat, rotenone and 6-OHDA) or 48 h (with ATP and MPP^+) using the MTT assay [85, 86, 87].
# P2X7R [1] = assay: ATP-induced YO-PRO-1 uptake in Neuro-2a cells; assay type: cell-based, murine
# Procedure: Figure 11 The effects of the peptides on ATP-induced Neuro-2a cell viability and activation of P2X7R. (a) Impact of the peptides on Neuro-2a cell viability in the presence of 4 mM ATP. The peptides were tested at concentrations of 0.01, 0.1, and 1.0 μM. Cells were incubated with peptides for 1 h at 37 °C, then for 48 h with ATP. (b) Effects of the peptides (0.01, 0.1, and 1.0 μM) on YO-PRO-1 uptake in Neuro-2a cells. ATP was used as a P2X7R agonist. A438079 (10 μM) was used as a standard inhibitor of P2X7R. The peptide effects were evaluated against the effects of ATP. The data are shown as means ± SE; *—p < 0.05 compared to the effect of ATP alone.
# For the uptake measurements of the large cationic dye YO-PRO-1, the peptides at final concentrations of 0.01, 0.1, and 1.0 μM were added to the culture medium with Neuro-2a cells and further incubated for 1 h at 37 °C with 5% CO2. Then, the cells were washed once with Hanks’ balanced salt solution (HBSS) (140 mM NaCl, 5 mM KCl, 0.8 mM MgCl2, 2 mM CaCl2, 10 mM glucose, 10 mM HEPES, pH 7.4) and filled with 180 μL of the same buffer. YO-PRO-1 (Sigma-Aldrich, St. Louis, MO, USA) was loaded into the wells to a final concentration of 5 μM, the cells were incubated for 15 min at 37 °C, then ATP was added to a final concentration of 4 mM and the plates were incubated for an additional 10 min. Then, the cells were washed three times with the buffer solution and the fluorescence intensity levels were measured with a PHERAstar FS plate reader (BMG, Germany) at λex = 480 nm and λem = 520 nm. A438079 (10 μM), a standard inhibitor of P2X7R, was used as positive control. The effectiveness of the peptides was evaluated relative to the control with ATP.
# P2X7R [2] = assay type: cell-based, murine
# Procedure: Neuro-2a cells were pre-incubated with studied peptides for 1 h at 37 °C with 5% CO2. Then, cells were washed twice with culture medium and loaded with 5 μM Fluo-8 dye (Sigma-Aldrich, St. Louis, MO, USA) and 1 μM Pluronic F-127 (Sigma-Aldrich, St. Louis, MO, USA) and incubated for 40 min at room temperature in HBSS saline at pH 7.4. Then, the cells were washed two times with the same solution but without the fluorescent dye and were incubated for 20–30 min at room temperature in the dark. In some experiments, Ca^2+-free medium was used. Here, 140 mM NaCl, 5 mM KCl, 0.8 mM MgCl2, 10 mM glucose, 10 mM HEPES, 5 mM EGTA, pH 7.4. ATP (1 mM final concentration) were added using a robotic microinjector (20 μL/well), then 10 s later the baseline recording and additional readings were taken up to 50 s at 1 s intervals. The standard P2X7R inhibitor A438079 (Sigma-Aldrich, St. Louis, MO, USA) was used as the inhibitory control. Ionomycin (Sigma-Aldrich, St. Louis, MO, USA) was used to generate a generic calcium signal in cells. Fluo-8 was excited at 488 nm, and the emission at 520 nm was measured with a PHERAstar plate reader (BMG LABTECH, Ortenberg, Germany).
# TRPV1 channels = assay: Electrophysiology on TRPV1 channels expressed in Xenopus laevis oocytes; assay type: cell-based
# Procedure: Oocytes were injected with 50 nL of cRNA at a concentration of 1 ng/nL using a micro-injector (Drummond Scientific, Broomall, PA, USA).
# 6-OHDA-treated cells = details: cited from earlier work
# Kv channels = details: cited from earlier work
# trypsin [3] = biological target: T1, trypsin (Bos taurus, UniProt P00760); assay: Residual trypsin-inhibitory activity after heating; assay type: biochemical; details: after heating to 100 °C; 7 μM peptide, 1.2 mM BAPNA, 37 °C, three parallel experiments
# T1 sequence (P00760 24-246): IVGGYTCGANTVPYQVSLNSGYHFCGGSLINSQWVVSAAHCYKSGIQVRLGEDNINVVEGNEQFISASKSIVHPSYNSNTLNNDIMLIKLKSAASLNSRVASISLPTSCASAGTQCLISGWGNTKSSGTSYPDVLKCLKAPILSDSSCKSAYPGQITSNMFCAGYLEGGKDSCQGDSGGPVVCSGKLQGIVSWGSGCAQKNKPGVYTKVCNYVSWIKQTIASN
# Procedure: Figure 6 The effects of temperature on the trypsin-inhibitory activity levels of peptides. Peptides were incubated at the temperatures for 30 min and their residual activities were measured.
# The temperature influence on the activity levels of peptides was assessed by measuring their residual inhibitory activity levels. After preincubation at temperatures ranging from 25 to 100 °C for 25 min, the peptide solutions were added to trypsin solution and the reaction mixtures were incubated for 10 min at 37 °C, then 1.2 mM BAPNA was added, followed by incubation at 37 °C for 30 min. The final concentration of the peptides was 7 μM. Substrate hydrolysis was measured at 410 nm. The residual activity was calculated based on the results of three parallel experiments according to the following equation [60]:% = (1 − residual enzyme activity/enzyme activity without inhibitor) × 100
# [4] = Thermal stability by CD spectroscopy; assay type: physicochemical; details: CD spectra and residual trypsin-inhibitory activity
# Procedure: Figure 5 Evaluation of the thermal stability of peptides in deionized water via CD spectroscopy. Recordings of the CD spectra of HCIQ2c1 (a), HMIQ3c1 (b), HCIQ4c7 (c), and HCIQ1c9 (d) were conducted in the far UV region (190–240 nm) after the solutions were incubated over a temperature range from 25 °C to 100 °C for 20–25 min.
# Circular dichroism (CD) spectra were recorded on a Chirascan-Plus CD spectropolarimeter (Applied Photophysics, Leatherhead, UK) in quartz cuvettes with an optical path length of 0.1 cm for the peptide spectrum region. The peptides were dissolved in deionized water ([…]) and incubated at temperatures ranging from 25 °C to 100 °C for 20–25 min before recording the CD spectra. The secondary structure elements were calculated using the Provencher–Glockner method using advanced Provencher calculation programs from the CDPro software package (Leatherhead, UK).
# Recombinant human P2X7R = biological target: T2, Recombinant human P2X7R (Homo sapiens, UniProt Q99572); assay: SPR binding to immobilized P2X7R extracellular domain; details: Biacore 3000, CM5 chip, P2X7R a.a. 47–334, HBS-N pH 7.4, 25 °C, peptide 5–100 μM, two-state (conformational change) binding model
# T2 construct: complete extracellular domain, 36.8 kDa; purchased Abbexa LTD, Cambridge, UK
# T2 sequence (Q99572 47-334): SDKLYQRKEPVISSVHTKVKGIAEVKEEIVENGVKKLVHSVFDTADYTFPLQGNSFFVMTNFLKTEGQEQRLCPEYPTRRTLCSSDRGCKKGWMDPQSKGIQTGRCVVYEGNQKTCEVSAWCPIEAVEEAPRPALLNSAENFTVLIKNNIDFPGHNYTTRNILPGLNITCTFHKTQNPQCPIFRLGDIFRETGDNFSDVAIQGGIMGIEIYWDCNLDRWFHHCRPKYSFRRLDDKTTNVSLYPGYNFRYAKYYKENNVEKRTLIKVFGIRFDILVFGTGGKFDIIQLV
# Procedure: SPR analyses were performed based on using a Biacore 3000 optical biosensor (GE Healthcare, USA) running under the program “Biacore 3000 Control Software v.1.0”. Recombinant human P2X7R (sequence positions of 47–334 a.a.; complete extracellular domain, 36.8 kDa) (Abbexa LTD, Cambridge, UK) was covalently immobilized on the carboxymethylated surface of the Biacore CM5 sensor chip (Cytiva, Chicago, IL, USA), then activated by the 1:1 mixture of 0.2 M 1-ethyl-3-(3-dimethylaminopropyl)carbodiimide hydrochloride (EDC) and 0.05 M N-hydroxysuccinimide (NHS) via the injection of receptor solution (15 μg/mL) in 10 mM sodium acetate (pH 5.0) for 10 min at a flow rate of 5 μL/min. The reference channel without immobilized P2X7R was used to correct the effects of the non-specific binding of peptides to the chip surface. The quantity of the immobilized hP2X7R equaled 12300 RU (resonance units, 1 RU corresponds to 1 pg receptor bound per mm^2 of chip surface). HBS-N (10 mM HEPES, 150 mM NaCl, pH 7.4) (Cytiva, USA) was used as a running buffer for SPR assays. Peptide solutions in the HBS-N buffer over a concentration range of 5–100 μM were passed through biosensor channels (working and reference) at a flow rate of 10 µL/min for 3 min at 25 °C. Dissociation of the formed peptide–P2X7R complexes was registered at the same flow rate for no less than 6 min from the moment of sample injection. […]
# trypsin [5] = biological target: trypsin
# trypsin [6] = assay: enzyme inhibition kinetics (Dixon's method); trypsin 208 nM, substrate BAPNA 0.6 and 1.2 mM, peptide 0-20 uM; three parallel experiments
# [7] = biological target: recombinant human P2X7R (47-334, complete extracellular domain) (human) (UniProt Q99572)
# [8] = biological target: recombinant human P2X7R (47-334, complete extracellular domain) (human) (UniProt Q99572); remark: listed apart in the source
# [9] = calculated using the CDSSR algorithm [54], cited from earlier work
# Source text: Table 1 The peptide secondary structural elements. | column: α-Helix / I; α-Helix / II; α-Helix / III; β-Structure / I; β-Structure / II; β-Structure / III; β-Turn; Unordered Structure
# Kunitz-type peptide HCIQ1c9, sequence (A0A6B7FEJ3 15-72 limits assumed): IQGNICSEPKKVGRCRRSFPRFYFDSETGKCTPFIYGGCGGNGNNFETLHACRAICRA
compound,measurement,setting,value
Clc1cccc(-c2nnnn2Cc2cccnc2)c1Cl [A438079],increase in viability of ATP-treated cells,"Neuro-2a cells; 10 μM, pre-incubation, 4 mM ATP 48 h, vs ATP alone",21.3 ± 0.5%
same,reduction of ATP-induced YO-PRO-1 uptake,"P2X7R [1]; 10 μM (standard inhibitor), 4 mM ATP, means ± SE",18.5 ± 3.2%
same,decrease in ATP-induced stable calcium response,"P2X7R [2]; 10 μM, 1 mM ATP, Fluo-8, relative to control, means ± SE",47.7 ± 4.4%
"Nc1ncnc2c1ncn2[C@@H]1O[C@H](COP(=O)(O)OP(=O)(O)OP(=O)(O)O)[C@@H](O)[C@H]1O [ATP, adenosine-5’-triphosphate]",total dead cells after ATP,"Neuro-2a cells; ATP 4 mM, 48 h, compared with control cells",up to 30.15 ± 0.68%
same,increase in YO-PRO-1 dye penetration,P2X7R [1]; ATP 4 mM,49.4 ± 5.9%
same,effect on [Ca2+]i,P2X7R [2]; ATP 1 mM,large sustained increase in [Ca^2+]i
COc1cc(CNC(=O)CCCC/C=C/C(C)C)ccc1O [capsaicin],effect on TRPV1 channels,TRPV1 channels; capsaicin 2 µM (agonist control),activation of the TRPV1 channels
Oc1cc2c(cc1O)CN(C(=S)NCCc1ccc(Cl)cc1)CCC2 [capsazepine],effect on TRPV1 channels,TRPV1 channels; capsazepine 10 µM (antagonist control),blocking of the channels
"HCRG1: Kunitz-type peptide from H. crispa, C0HJU6 (RGICSEPKVVGPCKAGLRRFYYDSETGECKPFIYGGCKGNKNNFETLHACRGICRA; UniProt C0HJU6 1-56, looked up)",effect on ROS production in 6-OHDA-treated cells,6-OHDA-treated cells,maintained ROS production in 6-OHDA-treated cells at the reference level
same,activity on Kv channels,Kv channels,blockers of Kv channels
"HCRG2: Kunitz-type peptide from H. crispa, C0HJU7 (RGICLEPKVVGPCKARIRRFYYDSETGKCTPFIYGGCGGNGNNFETLHACRGICRA; UniProt C0HJU7 1-56, looked up)",effect on ROS production in 6-OHDA-treated cells,6-OHDA-treated cells,maintained ROS production in 6-OHDA-treated cells at the reference level
same,activity on Kv channels,Kv channels,blockers of Kv channels
"IQGNICSEPKKVGRCRESFPRFYFDSETGKCTPFIYGGCGGNGNNFETLHACRAICRA (disulfide 6-56, 15-39, 31-52) [HCIQ4c7]",decrease in trypsin-inhibitory activity after heating,trypsin [3],7%
same,thermostability: retains conformation and biological activity until,[4],90–100 °C
same,Kd,Recombinant human P2X7R,45.5 µM
"IQGNICSEPKKVGRCRGSFPRFYFDSETGKCTPFIYGGCGGNGNNFETLRRCRAICRA (disulfide 6-56, 15-39, 31-52) [HMIQ3c1]",thermostability: retains conformation and biological activity until,[4],90–100 °C
same,Kd,Recombinant human P2X7R,43.3 µM
Kunitz-type peptide HCIQ1c9,decrease of trypsin-inhibitory activity (BAPNA hydrolysis) of 7 uM peptide after preincubation at 60 to 100 °C,trypsin [5],30 to 70 % decrease
same,Ki,trypsin [6],0.63 µM
Kunitz-type peptide HCIQ4c7,decrease of trypsin-inhibitory activity (BAPNA hydrolysis) of 7 uM peptide after preincubation at 25 to 100 °C; value after 100 °C,trypsin [5],7 % decrease
same,"reduction of ATP (4 mM)-induced YO-PRO-1 dye uptake into mouse Neuro-2a cells; peptide at 0.01, 0.1 and 1.0 uM; value at 1 uM",[7],28.5%
same,"decrease of the stable Ca2+ response (Fluo-8) to 1 mM ATP in mouse Neuro-2a cells pre-incubated with the peptide at 0.1, 1.0 and 10.0 uM; value at 10 uM",[8],59.1%
Kunitz-type peptide HMIQ3c1,"reduction of ATP (4 mM)-induced YO-PRO-1 dye uptake into mouse Neuro-2a cells; peptide at 0.01, 0.1 and 1.0 uM; value at 0.1 uM",[7],28.1%
same,"decrease of the stable Ca2+ response (Fluo-8) to 1 mM ATP in mouse Neuro-2a cells pre-incubated with the peptide at 0.1, 1.0 and 10.0 uM; value at 10 uM",[8],40.6%
"SHPI-1: Kunitz-type peptide from Stichodactyla helianthus, UniProtKB P31713 (SICSEPKKVGRCKGYFPRFYFDSETGKCTPFIYGGCGGNGNNFETLHQCRAICRA; UniProt P31713 1-55, looked up)",Unordered Structure,[9],40.0
same,β-Turn,[9],18.2
same,α-Helix III,[9]; summary value,20.0
same,β-Structure III,[9]; summary value,21.8

# — PMC9103184, “Kunitz-Type Peptides from Sea Anemones Protect Neuronal Cells against Parkinson’s Disease Inductors via Inhibition of ROS Production and ATP-Induced P2X7 Receptor Activation” (International Journal of Molecular Sciences, 2022)
